# Assay results taken from patent publication US20240384268A1, “Oligonucleotides” (Hudson Institute of Medical Research, priority 2021, published 2024).
# Biological target: T1, human TLR9 (Homo sapiens, UniProt Q9NR96)
# T1 construct: HA; host or cells: 293XL-hTLR9-HA (HEK293)
# T1 sequence (Q9NR96 26-1032): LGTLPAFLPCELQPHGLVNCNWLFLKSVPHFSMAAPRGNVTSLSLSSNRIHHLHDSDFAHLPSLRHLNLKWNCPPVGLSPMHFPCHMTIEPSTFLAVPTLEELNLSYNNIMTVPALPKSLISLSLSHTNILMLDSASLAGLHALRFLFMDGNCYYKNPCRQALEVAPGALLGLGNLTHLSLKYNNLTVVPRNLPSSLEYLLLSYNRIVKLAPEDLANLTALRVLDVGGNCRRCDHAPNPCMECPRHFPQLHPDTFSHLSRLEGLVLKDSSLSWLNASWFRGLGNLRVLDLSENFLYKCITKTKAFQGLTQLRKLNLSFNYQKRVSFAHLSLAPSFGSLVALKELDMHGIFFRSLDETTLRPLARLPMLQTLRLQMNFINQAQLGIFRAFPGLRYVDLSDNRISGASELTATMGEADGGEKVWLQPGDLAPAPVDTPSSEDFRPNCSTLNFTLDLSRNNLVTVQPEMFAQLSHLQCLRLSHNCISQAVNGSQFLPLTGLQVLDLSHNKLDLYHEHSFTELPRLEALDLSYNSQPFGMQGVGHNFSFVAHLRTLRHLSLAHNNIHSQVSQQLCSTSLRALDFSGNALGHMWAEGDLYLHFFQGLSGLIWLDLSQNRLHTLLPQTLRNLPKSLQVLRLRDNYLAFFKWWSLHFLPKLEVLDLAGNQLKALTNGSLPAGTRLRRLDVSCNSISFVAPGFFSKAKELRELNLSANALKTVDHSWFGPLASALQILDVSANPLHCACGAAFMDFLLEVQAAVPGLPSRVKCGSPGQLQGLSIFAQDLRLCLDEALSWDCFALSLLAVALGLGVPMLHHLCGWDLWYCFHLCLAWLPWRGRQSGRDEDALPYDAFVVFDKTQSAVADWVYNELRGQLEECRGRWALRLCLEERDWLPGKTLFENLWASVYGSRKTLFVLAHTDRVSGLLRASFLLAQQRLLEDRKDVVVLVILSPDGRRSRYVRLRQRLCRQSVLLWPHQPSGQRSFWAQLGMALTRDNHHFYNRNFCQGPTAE
# Test: HEK-TLR9 NF-κB-luciferase reporter, ODN2006 stimulation
# Assay type: cell-based
# Conditions: ASO 100 nM; relative to ODN2006 only, given as fraction
row,Sequence,TLR9 100 nM (averaged NF-κB-Luciferase level relative to ODN2006 condition)
1,"AAAGGACTGAGGAAAG (antisense; LNA-modified, pattern not given here) [CAMSAP1-6273 LNA KL]",0.780
2,"AACACTTCGTGGGGTC (antisense; LNA-modified, pattern not given here) [HPRT LNA-666 V1]",1.104
3,"AACCCCTTTCACCATC (antisense; LNA-modified, pattern not given here) [MB21D1-689 LNA KL]",0.586
4,"AATCCAACAAAGTCTG (antisense; LNA-modified, pattern not given here) [HPRT LNA-692 KL]",1.050
5,"ACCACGTCTGCTCTAA (antisense; LNA-modified, pattern not given here) [CAMSAP1-1635 LNA KL]",0.842
6,"ACGTTCAGTCCTGTCC (antisense; LNA-modified, pattern not given here) [HPRT LNA-294 V1]",0.427
7,"ACTTCGTGGGGTCCTT (antisense; LNA-modified, pattern not given here) [HPRT LNA-663 V1]",0.377
8,"AGATTTCAGAGCAGCT (antisense; LNA-modified, pattern not given here) [EGFR-4885 LNA KL]",0.848
9,"AGCTTCGAGGCCCCAG (antisense; LNA-modified, pattern not given here) [MB21D1-616 LNA V1]",0.114
10,"AGGACTCCAGATGTTT (antisense; LNA-modified, pattern not given here) [HPRT LNA pos cont]",0.816
11,"AGGCCCTTCGCACTTC (antisense; LNA-modified, pattern not given here) [EGFR-1225 LNA V1]",0.576
12,"AGGTCTTGGCTTCGTG (antisense; LNA-modified, pattern not given here) [MB21D1-524 LNA V1]",0.975
13,"AGTGTTGAGATACTCG (antisense; LNA-modified, pattern not given here) [EGFR-3652 LNA KL]",0.982
14,"ATCTGGCAGCCCATCA (antisense; LNA-modified, pattern not given here) [CTNN2B-2516 LNA V1]",1.248
15,"ATGGCCTCCCATCTCC (antisense; LNA-modified, pattern not given here) [HPRT LNA-330 V1]",0.511
16,"ATGTGATGGCCTCCCA (antisense; LNA-modified, pattern not given here) [HPRT LNA-335 V1]",0.776
17,"CACTTCGTGGGGTCCT (antisense; LNA-modified, pattern not given here) [HPRT LNA-664 V1]",0.215

# Same assay, conditions: ASO 500 nM; relative to ODN2006 only, given as fraction
row,Sequence,TLR9 500 nM (averaged NF-κB-Luciferase level relative to ODN2006 condition)
1,"AAAGGACTGAGGAAAG (antisense; LNA-modified, pattern not given here) [CAMSAP1-6273 LNA KL]",0.185
2,"AACACTTCGTGGGGTC (antisense; LNA-modified, pattern not given here) [HPRT LNA-666 V1]",0.475
3,"AACCCCTTTCACCATC (antisense; LNA-modified, pattern not given here) [MB21D1-689 LNA KL]",0.076
4,"AATCCAACAAAGTCTG (antisense; LNA-modified, pattern not given here) [HPRT LNA-692 KL]",0.529
5,"ACCACGTCTGCTCTAA (antisense; LNA-modified, pattern not given here) [CAMSAP1-1635 LNA KL]",0.162
6,"ACGTTCAGTCCTGTCC (antisense; LNA-modified, pattern not given here) [HPRT LNA-294 V1]",0.198
7,"ACTTCGTGGGGTCCTT (antisense; LNA-modified, pattern not given here) [HPRT LNA-663 V1]",0.377
8,"AGATTTCAGAGCAGCT (antisense; LNA-modified, pattern not given here) [EGFR-4885 LNA KL]",0.438
9,"AGCTTCGAGGCCCCAG (antisense; LNA-modified, pattern not given here) [MB21D1-616 LNA V1]",0.085
10,"AGGACTCCAGATGTTT (antisense; LNA-modified, pattern not given here) [HPRT LNA pos cont]",0.511
11,"AGGCCCTTCGCACTTC (antisense; LNA-modified, pattern not given here) [EGFR-1225 LNA V1]",0.211
12,"AGGTCTTGGCTTCGTG (antisense; LNA-modified, pattern not given here) [MB21D1-524 LNA V1]",0.383
13,"AGTGTTGAGATACTCG (antisense; LNA-modified, pattern not given here) [EGFR-3652 LNA KL]",0.540
14,"ATCTGGCAGCCCATCA (antisense; LNA-modified, pattern not given here) [CTNN2B-2516 LNA V1]",0.603
15,"ATGGCCTCCCATCTCC (antisense; LNA-modified, pattern not given here) [HPRT LNA-330 V1]",0.244
16,"ATGTGATGGCCTCCCA (antisense; LNA-modified, pattern not given here) [HPRT LNA-335 V1]",0.451
17,"CACTTCGTGGGGTCCT (antisense; LNA-modified, pattern not given here) [HPRT LNA-664 V1]",0.074
